Target: T1, human vasopressin V1a receptor subtype (Homo sapiens, UniProt P37288)
T1 construct: host or cells: CHO cells (pZeoSV vector for the Thibonnier line)
Assay: Vasopressin binding in Chinese Hamster Ovary cell membranes expressing human vasopressin V1a subtype receptors
Details: 100 nM, CHO cell membranes, [3H]Manning ligand, values without parentheses
Procedure, shortened: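 Displacement of [3H]Manning ligand (8 nM working solution) from human V1a receptors in CHO cell membranes, 25–50 μg protein per well. Incubation ran 60 min at room temperature in 50 mM Tris-HCl pH 7.4 with protease inhibitors, followed by filtration and scintillation counting. Results are given as IC50 or percent inhibition.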

T1 sequence (P37288 whole entry): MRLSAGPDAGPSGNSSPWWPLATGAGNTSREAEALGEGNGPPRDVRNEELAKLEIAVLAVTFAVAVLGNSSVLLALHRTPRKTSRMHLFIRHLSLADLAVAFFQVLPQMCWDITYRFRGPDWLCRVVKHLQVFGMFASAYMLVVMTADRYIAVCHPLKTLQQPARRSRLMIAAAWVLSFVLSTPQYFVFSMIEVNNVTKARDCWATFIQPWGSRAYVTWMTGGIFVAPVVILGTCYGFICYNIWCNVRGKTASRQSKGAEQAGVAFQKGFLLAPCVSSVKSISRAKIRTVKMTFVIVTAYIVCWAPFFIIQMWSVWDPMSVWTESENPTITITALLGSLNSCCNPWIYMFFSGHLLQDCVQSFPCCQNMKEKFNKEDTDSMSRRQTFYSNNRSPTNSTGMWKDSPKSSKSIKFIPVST

Point of comparison: `COc1ccccc1-c1ccc(C(=O)N2Cc3ccc(C(=O)N4CCN(CCN(C)C)CC4)n3Cc3ccccc32)cc1OC` [Example 204, {10-[(2,2′-Dimethoxy[1,1′-biphenyl]-4-yl)carbonyl]-10,11-dihydro-5H-pyrrolo[2,1-c][1,4]benzodiazepin-3-yl}{4-[2-(dimethylamino)ethyl]-1-piperazinyl}methanone], inhibition at 0.1 µM 16%. Against it:
- COc1cc(C(=O)N2Cc3ccc(C(=O)N(C)C4CCN(C)CC4)n3Cc3ccccc32)ccc1-c1ccccc1C [Example 179, 10-[(2-Methoxy-2′-methyl[1,1′-biphenyl]-4-yl)carbonyl]-N-methyl-N-(1-methyl-4-piperidinyl)-10,11-dihydro-5H-pyrrolo[2,1-c][1,4]benzodiazepine-3-carboxamide] — higher, 73%
- COc1cc(-c2ccccc2C)c(Cl)cc1C(=O)N1Cc2ccc(C(=O)N(C)C3CCN(C)CC3)n2Cc2ccccc21 [Example 180, 10-[(6-Chloro-3-methoxy-2′-methyl[1,1′-biphenyl]-4-yl)carbonyl]-N-methyl-N-(1-methyl-4-piperidinyl)-10,11-dihydro-5H-pyrrolo[2,1-c][1,4]benzodiazepine-3-carboxamide] — higher, 26%
- COc1cccc(-c2cc(OC)c(C(=O)N3Cc4ccc(C(=O)N(C)C5CCN(C)CC5)n4Cc4ccccc43)cc2Cl)c1 [Example 181, 10-[(6-Chloro-3,3′-dimethoxy[1,1′-biphenyl]-4-yl)carbonyl]-N-methyl-N-(1-methyl4-piperidinyl)-10,11-dihydro-5H-pyrrolo[2,1-c][1,4]benzodiazepine-3-carboxamide] — higher, 23%
- COc1cc(C(=O)N2Cc3ccc(C(=O)N(C)C4CCN(C)CC4)n3Cc3ccccc32)ccc1-c1cccc2ccccc12 [Example 182, 10-[3-Methoxy-4-(1-naphthyl)benzoyl]-N-methyl-N-(1-methyl-4-piperidinyl)-10,11-dihydro-5H-pyrrolo[2,1-c][1,4]benzodiazepine-3-carboxamide] — lower, 14%
- COc1ccccc1-c1ccc(C(=O)N2Cc3ccc(C(=O)N(C)C4CCN(C)CC4)n3Cc3ccccc32)cc1OC [Example 183, 10-[(2,2′-Dimethoxy[1,1′-biphenyl]-4-yl)carbonyl]-N-methyl-N-(1-methyl-4-piperidinyl)-10,11-dihydro-5H-pyrrolo[2,1-c][1,4]benzodiazepine-3-carboxamide] — higher, 26%
- Cc1cc(C(=O)N2Cc3ccc(C(=O)N(C)C4CCN(C)CC4)n3Cc3ccccc32)ccc1-c1ccccc1C(F)(F)F [Example 184, N-Methyl-N-(1-methyl-4-piperidinyl)-10-{[2-methyl-2′-(trifluoromethyl)[1,1′-biphenyl]-4-yl]carbonyl}-10,11-dihydro-5H-pyrrolo[2,1-c][1,4]benzodiazepine-3-carboxamide] — lower, 0%
- COc1ccccc1-c1ccc(C(=O)N2Cc3ccc(C(=O)N(C)C4CCN(C)C4)n3Cc3ccccc32)cc1C (stereo not shown) [Example 185, 10-[(2′-Methoxy-2-methyl[1,1′-biphenyl]-4-yl)carbonyl]-N-methyl-N-(1-methyl-3-pyrrolidinyl)-10,11-dihydro-5H-pyrrolo[2,1-c][1,4]benzodiazepine-3-carboxamide] — higher, 37%
- COc1cccc(-c2ccc(C(=O)N3Cc4ccc(C(=O)N(C)C5CCN(C)C5)n4Cc4ccccc43)cc2C)c1 (stereo not shown) [Example 186, 10-[(3′-Methoxy-2-methyl[1,1′-biphenyl]-4-yl)carbonyl]-N-methyl-N-(1-methyl-3-pyrrolidinyl)-10,11-dihydro-5H-pyrrolo[2,1-c][1,4]benzodiazepine-3-carboxamide] — higher, 53%
- COc1ccccc1-c1ccc(C(=O)N2Cc3ccc(C(=O)N(C)C4CCN(C)C4)n3Cc3ccccc32)cc1 (stereo not shown) [Example 187, 10-[(2′-Methoxy[1,1′-biphenyl]-4-yl)carbonyl]-N-methyl-N-(1-methyl-3-pyrrolidinyl)-10,11-dihydro-5H-pyrrolo[2,1-c][1,4]benzodiazepine-3-carboxamide] — higher, 81%
- Cc1ccccc1-c1ccc(C(=O)N2Cc3ccc(C(=O)N(C)C4CCN(C)C4)n3Cc3ccccc32)cc1 (stereo not shown) [Example 188, N-Methyl-10-[(2′-methyl[1,1′-biphenyl]-4-yl)carbonyl]-N-(1-methyl-3-pyrrolidinyl)-10,11-dihydro-5H-pyrrolo[2,1-c][1,4]benzodiazepine-3-carboxamide] — higher, 89%
- COc1cc(C(=O)N2Cc3ccc(C(=O)N(C)C4CCN(C)C4)n3Cc3ccccc32)ccc1-c1ccccc1C (stereo not shown) [Example 189, 10-[(2-Methoxy-2′-methyl[1,1′-biphenyl]-4-yl)carbonyl]-N-methyl-N-(1-methyl-3-pyrrolidinyl)-10,11-dihydro-5H-pyrrolo[2,1-c][1,4]benzodiazepine-3-carboxamide] — higher, 83%
- COc1cc(-c2ccccc2C)c(Cl)cc1C(=O)N1Cc2ccc(C(=O)N(C)C3CCN(C)C3)n2Cc2ccccc21 (stereo not shown) [Example 190, 10-[(6-Chloro-3-methoxy-2′-methyl[1,1′-biphenyl]-4-yl)carbonyl]-N-methyl-N-(1-methyl-3-pyrrolidinyl)-10,11-dihydro-5H-pyrrolo[2,1-c][1,4]benzodiazepine-3-carboxamide] — higher, 40%
- COc1cccc(-c2cc(OC)c(C(=O)N3Cc4ccc(C(=O)N(C)C5CCN(C)C5)n4Cc4ccccc43)cc2Cl)c1 (stereo not shown) [Example 191, 10-[(6-Chloro-3,3′-dimethoxy[1,1′-biphenyl]-4-yl)carbonyl]-N-methyl-N-(1-methyl-3-pyrrolidinyl)-10,11-dihydro-5H-pyrrolo[2,1-c][1,4]benzodiazepine-3-carboxamide] — higher, 41%
- COc1cc(C(=O)N2Cc3ccc(C(=O)N(C)C4CCN(C)C4)n3Cc3ccccc32)ccc1-c1cccc2ccccc12 (stereo not shown) [Example 192, 10-[3-Methoxy-4-(1-naphthyl)benzoyl]-N-methyl-N-(1-methyl-3-pyrrolidinyl)-10,11-dihydro-5H-pyrrolo[2,1-c][1,4]benzodiazepine-3-carboxamide] — higher, 31%
- COc1ccccc1-c1ccc(C(=O)N2Cc3ccc(C(=O)N(C)C4CCN(C)C4)n3Cc3ccccc32)cc1OC (stereo not shown) [Example 193, 10-[(2,2′-Dimethoxy[1,1′-biphenyl]-4-yl)carbonyl]-N-methyl-N-(1-methyl-3-pyrrolidinyl)-10,11-dihydro-5H-pyrrolo[2,1-c][1,4]benzodiazepine-3-carboxamide] — higher, 41%
- Cc1cc(C(=O)N2Cc3ccc(C(=O)N(C)C4CCN(C)C4)n3Cc3ccccc32)ccc1-c1ccccc1C(F)(F)F (stereo not shown) [Example 194, N-Methyl-N-(1-methyl-3-pyrrolidinyl)-10-{[2-methyl-2′-(trifluoromethyl)[1,1′-biphenyl]-4-yl]carbonyl}-10,11-dihydro-5H-pyrrolo[2,1-c][1,4]benzodiazepine-3-carboxamide] — higher, 23%
- Cc1ccccc1-c1ccc(C(=O)N2Cc3ccc(C(=O)N4CCN(CCN(C)C)CC4)n3Cc3ccccc32)cc1C [Example 198, {4-[2-(Dimethylamino)ethyl]-1-piperazinyl}{10-[(2,2′-dimethyl[1,1′-biphenyl]-4-yl)carbonyl]-10,11-dihydro-5H-pyrrolo[2,1-c][1,4]benzodiazepin-3-yl}methanone] — higher, 50%
- Cc1ccccc1-c1ccc(C(=O)N2Cc3ccc(C(=O)N4CCN(CCN(C)C)CC4)n3Cc3ccccc32)cc1 [Example 200, {4-[2-(Dimethylamino)ethyl]-1-piperazinyl}{10-[(2′-methyl[1,1′-biphenyl]-4-yl)carbonyl]-10,11-dihydro-5H-pyrrolo[2,1-c][1,4]benzodiazepin-3-yl}methanone] — higher, 64%
- COc1cc(C(=O)N2Cc3ccc(C(=O)N4CCN(CCN(C)C)CC4)n3Cc3ccccc32)ccc1-c1ccccc1C [Example 201, {4-[2-(Dimethylamino)ethyl]-1-piperazinyl}{10-[(2-methoxy-2′-methyl[1,1′-biphenyl]-4-yl)carbonyl]-10,11-dihydro-5H-pyrrolo[2,1-c][1,4]benzodiazepin-3-yl}methanone] — higher, 43%
- COc1cccc(-c2cc(OC)c(C(=O)N3Cc4ccc(C(=O)N5CCN(CCN(C)C)CC5)n4Cc4ccccc43)cc2Cl)c1 [Example 202, {10-[(6-Chloro-3,3′-dimethoxy[1,1′-biphenyl]-4-yl)carbonyl]-10,11-dihydro-5H-pyrrolo[2,1-c][1,4]benzodiazepin-3-yl}{4-[2-(dimethylamino)ethyl]-1-piperazinyl}methanone] — lower, 2%
- COc1cc(C(=O)N2Cc3ccc(C(=O)N4CCN(CCN(C)C)CC4)n3Cc3ccccc32)ccc1-c1cccc2ccccc12 [Example 203, {4-[2-(Dimethylamino)ethyl]-1-piperazinyl}{10-[3-methoxy-4-(1-naphthyl)benzoyl]-10,11-dihydro-5H-pyrrolo[2,1-c][1,4]benzodiazepin-3-yl}methanone] — lower, 4%
- CN(C)CCN1CCN(C(=O)c2ccc3n2Cc2ccccc2N(C(=O)c2ccc(-c4cccc5ccccc45)cc2Cl)C3)CC1 [Example 205, {10-[2-Chloro-4-(1-naphthyl)benzoyl]-10,11-dihydro-5H-pyrrolo[2,1-c][1,4]benzodiazepin-3-yl}{4-[2-(dimethylamino)ethyl]-1-piperazinyl}methanone] — lower, -6%
- COc1cccc(-c2ccc(C(=O)N3Cc4ccc(C(=O)N5CCN(CCN6CCOCC6)CC5)n4Cc4ccccc43)cc2C)c1 [Example 208, {10-[(3′-Methoxy-2-methyl[1,1′-biphenyl]-4-yl)carbonyl]-10,11-dihydro-5H-pyrrolo[2,1-c][1,4]benzodiazepin-3-yl}{4-[2-(4-morpholinyl)ethyl]-1-piperazinyl}methanone] — higher, 20%
- Cc1ccccc1-c1ccc(C(=O)N2Cc3ccc(C(=O)N4CCN(CCN5CCOCC5)CC4)n3Cc3ccccc32)cc1 [Example 209, {10-[(2′-Methyl[1,1′-biphenyl]-4-yl)carbonyl]-10,11-dihydro-5H-pyrrolo[2,1-c][1,4]benzodiazepin-3-yl}{4-[2-(4-morpholinyl)ethyl]-1-piperazinyl}methanone] — higher, 64%
